The NIST ThermoML archive (doi:10.1021/je800110r)
“And” between values parts separate entries of the source, which are not always exact repeats. Equal values may be shown once.

Conditions: 313.14 K, Liquid, Vibrating tube method

CCCCCCCCCC [decane]
Conditions | mass density
4519 kPa | 718.5 kg/m3
4530 kPa | 718.5 kg/m3
4546 kPa | 718.5 kg/m3
4557 kPa | 718.5 kg/m3
4572 kPa | 718.5 kg/m3
4582 kPa | 718.5 kg/m3
4599 kPa | 718.5 kg/m3
4610 kPa | 718.6 kg/m3
4621 kPa | 718.5 kg/m3
4637 kPa | 718.6 kg/m3
4652 kPa | 718.6 kg/m3
4667 kPa | 718.6 kg/m3
4685 kPa | 718.6 kg/m3
4705 kPa | 718.7 kg/m3
4723 kPa | 718.6 kg/m3
4741 kPa | 718.8 kg/m3
4755 kPa | 718.6 kg/m3
4774 kPa | 718.6 kg/m3
4792 kPa | 718.7 kg/m3
4814 kPa | 718.7 kg/m3
4825 kPa | 718.7 kg/m3
4842 kPa | 718.7 kg/m3
4859 kPa | 718.8 kg/m3
4873 kPa | 718.8 kg/m3
4891 kPa | 718.7 kg/m3
4913 kPa | 718.8 kg/m3
4930 kPa | 718.8 kg/m3
4945 kPa | 718.8 kg/m3
4968 kPa | 718.8 kg/m3
4991 kPa | 718.9 kg/m3
5004 kPa | 718.8 kg/m3
5027 kPa | 718.9 kg/m3
5042 kPa | 718.9 kg/m3
5063 kPa | 718.9 kg/m3
5079 kPa | 719 kg/m3
5092 kPa | 719 kg/m3
5111 kPa | 719 kg/m3
5130 kPa | 719 kg/m3
5149 kPa | 719 kg/m3
5165 kPa | 718.9 kg/m3
5185 kPa | 719 kg/m3
5207 kPa | 719 kg/m3
5230 kPa | 719.2 kg/m3
5251 kPa | 719.2 kg/m3
5270 kPa | 719.1 kg/m3
5300 kPa | 719.2 kg/m3
5315 kPa | 719.3 kg/m3
5316 kPa | 719.2 kg/m3
5318 kPa | 719.2 kg/m3
5320 kPa | 719.2 kg/m3
5321 kPa | 719.1 kg/m3 and 719.3 kg/m3
5322 kPa | 719.2 kg/m3
5338 kPa | 719.1 kg/m3
5355 kPa | 719.1 kg/m3
5373 kPa | 719.2 kg/m3
5385 kPa | 719.3 kg/m3
5399 kPa | 719.3 kg/m3
5414 kPa | 719.1 kg/m3
5430 kPa | 719.2 kg/m3
5444 kPa | 719.2 kg/m3
5461 kPa | 719.2 kg/m3
5478 kPa | 719.2 kg/m3
5498 kPa | 719.3 kg/m3
5515 kPa | 719.3 kg/m3
5537 kPa | 719.4 kg/m3
5552 kPa | 719.4 kg/m3
5568 kPa | 719.4 kg/m3
5586 kPa | 719.4 kg/m3
5603 kPa | 719.4 kg/m3
5622 kPa | 719.4 kg/m3
5636 kPa | 719.4 kg/m3
5655 kPa | 719.4 kg/m3
5671 kPa | 719.5 kg/m3
5686 kPa | 719.4 kg/m3
5705 kPa | 719.4 kg/m3
5721 kPa | 719.5 kg/m3
5739 kPa | 719.5 kg/m3
5753 kPa | 719.5 kg/m3
5771 kPa | 719.5 kg/m3
5788 kPa | 719.6 kg/m3
5803 kPa | 719.5 kg/m3
5819 kPa | 719.6 kg/m3
5838 kPa | 719.5 kg/m3
5852 kPa | 719.6 kg/m3
5871 kPa | 719.7 kg/m3
5889 kPa | 719.6 kg/m3
5906 kPa | 719.7 kg/m3
5927 kPa | 719.6 kg/m3
5946 kPa | 719.7 kg/m3
5963 kPa | 719.6 kg/m3
5982 kPa | 719.7 kg/m3
6002 kPa | 719.7 kg/m3
6019 kPa | 719.8 kg/m3
6042 kPa | 719.8 kg/m3
6064 kPa | 719.8 kg/m3
6084 kPa | 719.8 kg/m3
6100 kPa | 719.8 kg/m3
6120 kPa | 719.9 kg/m3
6140 kPa | 719.8 kg/m3
6162 kPa | 719.8 kg/m3
6180 kPa | 719.9 kg/m3
6198 kPa | 719.9 kg/m3
6202 kPa | 719.8 kg/m3
6204 kPa | 719.9 kg/m3
6213 kPa | 719.9 kg/m3
6230 kPa | 719.9 kg/m3
6246 kPa | 719.9 kg/m3
6262 kPa | 720 kg/m3
6278 kPa | 719.9 kg/m3
6295 kPa | 720 kg/m3
6313 kPa | 720 kg/m3
6332 kPa | 720 kg/m3
6353 kPa | 720.1 kg/m3
6367 kPa | 720 kg/m3
6383 kPa | 720 kg/m3
6398 kPa | 720.1 kg/m3
6420 kPa | 720.1 kg/m3
6438 kPa | 720.1 kg/m3
6453 kPa | 720 kg/m3
6472 kPa | 720.1 kg/m3
6484 kPa | 720 kg/m3
6500 kPa | 720.1 kg/m3
6518 kPa | 720.1 kg/m3
6531 kPa | 720.1 kg/m3
6545 kPa | 720.1 kg/m3
6559 kPa | 720.1 kg/m3
6575 kPa | 720.1 kg/m3
6586 kPa | 720.2 kg/m3
6599 kPa | 720.3 kg/m3
6611 kPa | 720.2 kg/m3
6626 kPa | 720.1 kg/m3
6643 kPa | 720.3 kg/m3
6658 kPa | 720.3 kg/m3
6675 kPa | 720.3 kg/m3
6689 kPa | 720.2 kg/m3
6708 kPa | 720.2 kg/m3
